For one experiment, the system named is Raji cells (lymphoma). The experiment is described as follows: MTT cell growth inhibition, Raji. Type of experiment: cell-based, human. As to conditions: 72 h. As for the experimental part:
FIG. 2. Effect of Orsaponin (OSW-1) on cell growth in two human cancer cell lines including a leukemia and a lymphoma cell line. HL-60 (leukemia) and Raji cells (lymphoma) in exponentially growing phase were treated with the indicated concentrations of OSW-1 for 72 hours. Cell growth inhibition was measured by MTT assay.
Cells and Cell Lines. Various cancer cell lines were used including the human leukemia cell lines HL-60 and ML-1 cells; human lymphoma cell line Raji; human pancreatic cancer cells AsPC-1; and human ovarian cancer cells SKOV3; human colon cancer cells HCT116; as well as isolated CLL cells from patients; and lymphocytes from normal donors. Cells were grown and maintained as per protocols known in the art using appropriate cell culture media and supplements.
1. MTT Assays. For these assays either cancer cell lines were used. […] After the indicated number of days (usually 3 days or 72 hours) of exposure to OSW-1, cell survival was assessed by the addition of the MTT dye to the wells. […] Survival of cells under orsaponin treatment was evaluated as a percentage of control cell growth. […]
Anticancer activities of Orsaponin and 17-deoxyorsaponin were examined in human leukemia cells (ML-1) and human lymphoma cells (Raji). Cells were incubated with various concentrations of Orsaponin and 17-deoxyorsaponin for 72 h, and cell growth inhibition was measured by MTT assay.

The subject of experiment [1] is primary normal lymphocytes. The experiment is described as follows: MTT cell viability, normal lymphocytes from healthy donors. Type of experiment: cell-based. As to conditions: Homo sapiens, Lymphocyte. Here is the method:
FIG. 8. Effect of Orsaponin (OSW-1) on cell survival in primary normal lymphocytes isolated from healthy donors. Freshly isolated normal lymphocytes were incubated with the indicated concentrations of OSW-1 for 72 hours in vitro. Cell viability was measured by MTT assay. The IC50 value estimated to be 4 nM and 3 nM in case #1 and #2, respectively.
1. MTT Assays. For these assays either cancer cell lines were used. Alternatively, mononuclear cells from peripheral blood samples of CLL patients or normal donors were separated by Ficoll Hipaque fractionation and resuspended in DMEM complete medium. Malignant cells from various human cell lines (usually at 5×10^4 cells/ml) or mononuclear cells from peripheral blood of leukemia patients and healthy donors (1×10^6 cells/ml) were incubated in either αMEM or RPMI 1640 with or without various concentrations of OSW-1 in the range of 0-10 nM. Each experimental condition was done in triplicate. After the indicated number of days (usually 3 days or 72 hours) of exposure to OSW-1, cell survival was assessed by the addition of the MTT dye to the wells. The MTT dye changes its color depending on the presence of live cells in the well. Survival of cells under orsaponin treatment was evaluated as a percentage of control cell growth. Alternatively, one can also use the dye trypan-blue which penetrates dead cells thereby allowing one to count live cells under the microscope and estimating percentage survival.
As controls the effect of OSW-1 on cell survival in primary normal lymphocytes isolated from healthy donors was also analyzed. Freshly isolated normal lymphocytes were incubated with the 01-0 nM OSW-1 for 72 hours in vitro and cell viability was measured by MTT assay. As depicted in FIG. 8, the IC50 value estimated to be 4 nM and 3 nM in case #1 and #2, respectively.

The next experiment deals with HL-60 cells. Nature of the experiment: Apoptosis and cell cycle (annexin V, DNA fragmentation, flow cytometry), HL-60. In kind it is cell-based, human. As to conditions: HL-60, 0.5 nM. Here is the method: FIGS. 1A-1B. Induction of apoptosis by Orsaponin (OSW-1) in human leukemia cells. HL-60 cells in exponentially growing phase were treated with 0.5 nM OSW-1 for the indicated times. Drug induced apoptosis was analyzed by the annexin V assay as shown in FIG. 1A and by the DNA fragmentation assay as shown in FIG. 1B. In FIG. 1A, the early and late stages of apoptotic cells appear in the low-right window and upper-right window, respectively.
(§1) FIG. 9. Mitochondrial respiration plays an important role in the cytotoxic action of Orsaponin (OSW-1). The parental HL-60 line and its mutant with mitochondrial respiration defect, clone C6F, were incubated with 0.5 nM OSW-1 for the indicated times. Apoptosis and change in cell cycle distribution were assayed by flow cytometry analysis.
2. Analysis of Apoptosis. Two methods were used to analyze apoptosis by assaying different events in the apoptotic pathways. Percentages of apoptotic cells induced by orsaponins of the invention were evaluated using flow cytometer. Different methods of staining cells for apoptosis were utilized to assess different aspects of apoptotic cascade.
(i) Annexin V Staining. Annexin V binds to cells that express phosphatidylserine on the outer layer of the cell membrane. […] Cells were analyzed on flow cytometer.
(ii) DNA Fragmentation Assay. […] The cell are then lysed in a solution containing 10 mM Tris-HCl, pH 7.5, 25 mM EDTA, 0.5% SDS, and […] protease K. After digestion and removal of the cellular protein from the cellular DNA, the isolated DNA is analyzed on a 1.8% agarose gel, and visualized by ethidium bromide staining. […]
Two cancer cell lines and their mutant mitochondrial respiration deficient clones were analyzed for apoptosis and changes in cell-cycle following exposure to OSW-1. […] Consistent with these observations, apoptosis was also detected by DNA fragmentation assays performed at 24 and 32 hours after HL-60 cells are treated with OSW-1; DNA fragmentation was not observed in C6F cells even at 32 hours of drug incubation (data not shown).
(A flow cytometer gives signals particle by particle.)

Experiment [2] relates to C6F cells (HL-60 mutant with mitochondrial respiration defect). The experiment is described as follows: Apoptosis and cell cycle, respiration-deficient C6F. As to conditions: 0.5 nM, 16 and 24 h. In kind it is cell-based, human. As for the experimental part:
as §1
Two cancer cell lines and their mutant mitochondrial respiration deficient clones were analyzed for apoptosis and changes in cell-cycle following exposure to OSW-1. Thus, the parental HL-60 leukemia line and its mitochondrial respiration defective mutant C6F were incubated with 0.5 nM OSW-1 for 0, 8, 16 and 24 hours and apoptosis and change in cell cycle distribution were assayed by flow cytometry analysis. […] Thus, it is clear that the respiration defective cells are resistant to the effects of OSW-1. Consistent with these observations, apoptosis was also detected by DNA fragmentation assays performed at 24 and 32 hours after HL-60 cells are treated with OSW-1; DNA fragmentation was not observed in C6F cells even at 32 hours of drug incubation (data not shown).

Structures are written as SMILES. Read-outs that look alike come from different tables or passages of the source.

As usually defined, the IC50 is the concentration at which inhibition is half-maximal.

For `COc1ccc(C(=O)OC2C(OC3C(O)COC(O[C@H]4C[C@H]5[C@@H]6CC=C7C[C@@H](O)CC[C@]7(C)[C@H]6CC[C@]5(C)[C@@]4(O)[C@H](C)C(=O)CCC(C)C)C3OC(C)=O)OCC(O)C2O)cc1` (stereo partly drawn) [OSW-1, 3β, 16β, 17 α-trihydroxycholost-5-en-22-one 16-O-(2-O-4-methoxybenzoyl-β-D-xylopyranosyl)-(1->3)-(2-O-acetyl-α-L-arabinopyranoside)], the IC50 in the experiment with Raji cells (lymphoma) was less than 0.5 nM; in experiment [1] (72 h, normal lymphocytes, 72 hours, case #1, read-out: IC50, cell viability) it was roughly 4 nM; in experiment [1] (72 h, normal lymphocytes, 72 hours, case #2, read-out: IC50, cell viability), roughly 3 nM; in experiment [1] (Normal Lymphocytes, mean, read-out: IC50) it was 3.5 ± 0.7 nM. Besides, the “change in cell cycle distribution” value in the experiment on HL-60 cells (16 hours) was “significant reduction of G1 phase cells and an increase of cells in the G2/M phase region”. Moreover, the “apoptosis (subG1)” value in the experiment with HL-60 cells (24 h, flow cytometry) is reported as “a substantial portion of the drug-treated HL-60 cells became apoptotic”. The “time after incubation at which apoptosis occurred” value with HL-60 cells (annexin V and DNA fragmentation) is 16 h. Besides, the apoptosis result in experiment [2] is recorded as “does not result in significant apoptosis”.

For the origin of these results see patent publication US20050004044A1, “Use of orsaponin [3beta, 16beta, 17 alpha-trihydroxycholost-5-en-22-one 16-0-(2-0-4-methoxybenzoyl-beta-D-xylopyranosyl)-(1->3)-(2-0-acetyl-alpha-L-arabinopyranoside)] or OSW-1 and its derivatives for cancer therapeutics” (priority 2003, published 2005).
